Data from article PMC7438494 (Communications Biology, 2020).
Several values for one entry are separate records, joined by “and”; a condition that tells them apart may be missing. Equal entries are not always repeated. Where two headings read alike, the source gives them in different places.

Columns and labels:
hERG channel = settings: read-out: IC50 for hERG; cited from earlier work
[1] = patients treated with Sirturo; placebo 2.5%; cited from earlier work
yeast F1Fo ATP synthase [2] = molecular target: T1, yeast F1Fo ATP synthase (Saccharomyces cerevisiae, UniProt P00854+P61829); test: biochemical
MCF7 breast cancer cells = settings: read-out: IC50, mitochondrial oxygen consumption / cell growth; cited from earlier work
yeast F1Fo ATP synthase [3] = molecular target: T1, yeast F1Fo ATP synthase; test: Single-particle cryo-EM of yeast F1Fo in nanodiscs with BDQ; type: binding
human mitoplasts = test: Membrane potential of human mitoplasts, fluorescence quenching of Rhodamine 123; type: biochemical; settings: high concentrations
Experimental: (§1) The membrane potential was assessed by measuring fluorescence quenching of Rhodamine 123 at 488 nm excitation and 525 nm emission in a buffer containing 0.65 M mannitol, 20 mM bis-tris-propane, 2 mM tris-phosphate, 0.3 mM EGTA, pH 6.8 with Rhodamine 123 dissolved in methanol (1.0 µM). Yeast mitochondria were energized with ethanol (0.4% v/v), whereas human mitochondria were energized with glutamate/malate (5 mM/2.5 mM).

yeast mitochondria = test: Membrane potential of yeast mitochondria, fluorescence quenching of Rhodamine 123; type: biochemical, Saccharomyces cerevisiae; settings: high concentrations
Experimental: as §1

## COc1nc2ccc(Br)cc2cc1[C@@H](c1ccccc1)[C@@](O)(CCN(C)C)c1cccc2ccccc12 [BDQ, Bedaquiline]
hERG channel
  IC50: ~1700 nM
[1]
  risk of death: 11.4%
Yeast F1Fo ATP synthase [2]; BDQ, F1Fo in bicelles
  Hillslope, four parameter logistic fit: -1.0426
Yeast F1Fo ATP synthase [2]; BDQ, F1Fo in bicelles, […]
  max, four parameter logistic fit: 1.167
  min, four parameter logistic fit: 0.2116
Yeast F1Fo ATP synthase [2]; BDQ, F1Fo in bicelles, x in µM BDQ, read-out: EC50, four parameter logistic fit (coefficient) (converted)
  EC50: 0.0272 µM
Yeast F1Fo ATP synthase [2]; F1Fo in bicelles, BDQ 0.0246 uM
  ATP hydrolysis activity (ΔA340nm), Exp 1-3: 0.6436 and 0.6522 and 0.6471
Yeast F1Fo ATP synthase [2]; F1Fo in bicelles, BDQ 0.0372 uM
  ATP hydrolysis activity (ΔA340nm), Exp 1-3: 0.615 and 0.6977 and 0.5128
Yeast F1Fo ATP synthase [2]; F1Fo in bicelles, BDQ 0.0744 uM
  ATP hydrolysis activity (ΔA340nm), Exp 1-3: 0.5405 and 0.4979 and 0.4346
Yeast F1Fo ATP synthase [2]; F1Fo in bicelles, BDQ 0.25 uM
  ATP hydrolysis activity (ΔA340nm), Exp 1-3: 0.379 and 0.272 and 0.2957
Yeast F1Fo ATP synthase [2]; F1Fo in bicelles, BDQ 0.37 uM
  ATP hydrolysis activity (ΔA340nm), Exp 1-3: 0.3688 and 0.2428 and 0.2764
Yeast F1Fo ATP synthase [2]; F1Fo in bicelles, BDQ 0.74 uM
  ATP hydrolysis activity (ΔA340nm), Exp 1-3: 0.2533 and 0.2466 and 0.2454
Yeast F1Fo ATP synthase [2]; F1Fo in bicelles, BDQ 1.49 uM
  ATP hydrolysis activity (ΔA340nm), Exp 1-3: 0.2105 and 0.2204 and 0.2061
Yeast F1Fo ATP synthase [2]; F1Fo in bicelles, BDQ 3.72 uM
  ATP hydrolysis activity (ΔA340nm), Exp 1-3: 0.2216 and 0.2051 and 0.1755
Yeast F1Fo ATP synthase [2]; F1Fo in bicelles, BDQ 7.44 uM
  ATP hydrolysis activity (ΔA340nm), Exp 1-3: 0.2035 and 0.2344 and 0.1804
Yeast F1Fo ATP synthase [2]; F1Fo in bicelles, BDQ 18.61 uM
  ATP hydrolysis activity (ΔA340nm), Exp 1-3: 0.2777 and 0.1895 and 0.1989
Yeast F1Fo ATP synthase [2]; F1Fo in bicelles, BDQ 37.22 uM
  ATP hydrolysis activity (ΔA340nm), Exp 1-3: 0.2178 and 0.2279 and 0.1889
Yeast F1Fo ATP synthase [2]; F1Fo in bicelles, BDQ 52.11 uM
  ATP hydrolysis activity (ΔA340nm), Exp 1-3: 0.1835 and 0.2422 and 0.1841
Yeast F1Fo ATP synthase [2]; F1Fo in bicelles, BDQ 74.45 uM
  ATP hydrolysis activity (ΔA340nm), Exp 1-3: 0.1959 and 0.193 and 0.2223
Yeast F1Fo ATP synthase [2]; F1Fo in bicelles, maximal
  inhibition of ATP hydrolysis by yeast F1Fo (extent): ~85%
Yeast F1Fo ATP synthase [2]; F1Fo in bicelles, n = 3, read-out: IC50 ± SEM, ATP hydrolysis, purified yeast F1Fo
  IC50: 27 ± 2.5 nM
Yeast F1Fo ATP synthase [2]; F1Fo in bicelles, read-out: IC50, ATP hydrolysis, purified yeast F1Fo
  IC50: ~25 nM
Yeast F1Fo ATP synthase [2]; reconstituted in bicelles, n = 3, read-out: EC50, inhibition of the ATPase activity of purified yeast ATP synthase
  EC50: 0.027 ± 0.0025 µM
MCF7 breast cancer cells
  IC50: ~1000 nM
Yeast F1Fo ATP synthase [3]; F1Fo map 3.9 Å
  binding to F1 by cryo-EM density: not bound to F1
Yeast F1Fo ATP synthase [3]; Fo map 4.2 Å
  binding site by cryo-EM density: at the interface between the a- and c-subunits
Human mitoplasts
  effect on membrane potential, human mitoplasts: partial effect
Yeast mitochondria
  effect on membrane potential, yeast mitochondria: partial effect
